Experimental data reported in ChEMBL document CHEMBL5058564, “EUbOPEN Chemogenomics Library 2 (Incucyte)” (2022).

What was measured:
Format in all cases: toxicity, cell-based
[1] = system: HEK-293T; experiment: Incucyte cell viability with HEK293T; conditions: human, 10 µM, compound concentration 10 uM
[2] = system: Fibroblast; experiment: Incucyte cell viability with human fibroblast; conditions: 10 µM, compound concentration 10 uM
[3] = system: U2OS; experiment: Incucyte cell viability with U2OS; conditions: human, 10 µM, compound concentration 10 uM
[4] = 0 h, replicate number 1, timepoint 0 hours
[5] = 0 h, replicate number 2, timepoint 0 hours
[6] = 6 h, replicate number 1, timepoint 6 hours
[7] = 24 h, replicate number 1, timepoint 24 hours
[8] = 6 h, replicate number 2, timepoint 6 hours
[9] = 12 h, replicate number 1, timepoint 12 hours
[10] = 18 h, replicate number 1, timepoint 18 hours
[11] = 18 h, replicate number 2, timepoint 18 hours
[12] = 12 h, replicate number 2, timepoint 12 hours
[13] = 24 h, replicate number 2, timepoint 24 hours
Also: unitless GR value; below 1 slowed growth and below 0 cell loss.

SMILES: CC(/C=C1\SC(=S)N(CCCC(=O)Nc2ccc(C(=O)O)c(O)c2)C1=O)=C\c1ccccc1
- Growth Rate [1, 4]: 0.57
- Growth Rate [1, 5]: 0.54
- Growth Rate [2, 5]: -0.04
- Growth Rate [2, 6]: 0.97
- Growth Rate [2, 7]: 0.83
- Growth Rate [3, 4]: 0.71
- Growth Rate [3, 5]: -1
- Growth Rate [3, 8]: 0.79

SMILES: O=C(Nc1cc(-c2ccccc2)nn1-c1ccccc1F)c1ccc([N+](=O)[O-])cc1
- Growth Rate [1, 4]: 0.97
- Growth Rate [1, 5]: 0.17
- Growth Rate [2, 6]: -0.14
- Growth Rate [2, 8]: 0.55
- Growth Rate [2, 9]: 0.25
- Growth Rate [2, 10]: 0.09
- Growth Rate [2, 11]: 0.95
- Growth Rate [2, 7]: -0.11
- Growth Rate [3, 8]: 0.54
- Growth Rate [3, 12]: 0.84
- Growth Rate [3, 11]: 0.9
- Growth Rate [3, 13]: 0.95

SMILES: COC1(C[S@@+]([O-])c2ccccc2)CCN(CCc2c[nH]c3ccc(F)cc23)CC1
- Growth Rate [1, 4]: 0.79
- Growth Rate [1, 8]: 0.72
- Growth Rate [1, 12]: 0.77
- Growth Rate [1, 10]: 0.91
- Growth Rate [1, 7]: 0.8
- Growth Rate [2, 6]: 0.42
- Growth Rate [2, 8]: -0.24
- Growth Rate [2, 9]: 0.32
- Growth Rate [2, 12]: 0.15
- Growth Rate [2, 10]: 0.49
- Growth Rate [2, 11]: 0.53
- Growth Rate [2, 7]: 0.53
- Growth Rate [2, 13]: 0.79
- Growth Rate [3, 4]: 0.42
- Growth Rate [3, 5]: -1
- Growth Rate [3, 6]: -0.09

SMILES: COc1cc(OC2CCN(C(C)=O)CC2)ccc1C(=O)N1CCC(N2C(=O)OCc3ccccc32)CC1
- Growth Rate [1, 4]: 0.92
- Growth Rate [2, 6]: -0.07
- Growth Rate [2, 8]: -0.41
- Growth Rate [2, 9]: 0.28
- Growth Rate [2, 12]: 0.65
- Growth Rate [2, 10]: 0.37
- Growth Rate [2, 7]: 0.24
- Growth Rate [3, 4]: 0.75
- Growth Rate [3, 6]: 0.85
- Growth Rate [3, 8]: 0.79
- Growth Rate [3, 12]: 0.77
- Growth Rate [3, 10]: 0.91
- Growth Rate [3, 11]: 0.78
- Growth Rate [3, 7]: 0.91
- Growth Rate [3, 13]: 0.88

SMILES: COc1ccc(-n2c(C)c([N+](=O)[O-])c3ccc(O)cc32)cc1
- Growth Rate [1, 4]: 0.39
- Growth Rate [2, 8]: 0.98
- Growth Rate [2, 11]: 0.87
- Growth Rate [2, 13]: 0.5
- Growth Rate [3, 5]: -1
- Growth Rate [3, 6]: -0.36
- Growth Rate [3, 8]: 0.75
- Growth Rate [3, 9]: 0.46
- Growth Rate [3, 12]: 0.73
- Growth Rate [3, 10]: 0.7
- Growth Rate [3, 11]: 0.71
- Growth Rate [3, 7]: 0.63
- Growth Rate [3, 13]: 0.67

SMILES: Cc1nc[nH]c1CCN.Cl
- Growth Rate [1, 4]: 0.42
- Growth Rate [1, 5]: 0.64
- Growth Rate [1, 9]: 0.91
- Growth Rate [1, 10]: 0.92
- Growth Rate [1, 7]: 0.81
- Growth Rate [2, 4]: 0.7
- Growth Rate [2, 8]: 0.14
- Growth Rate [2, 12]: 0.83
- Growth Rate [2, 11]: 0.58
- Growth Rate [2, 13]: 0.86
- Growth Rate [3, 4]: -0.24
- Growth Rate [3, 5]: -1
- Growth Rate [3, 10]: 0.91

SMILES: N[C@@H](CCP(=O)(O)O)C(=O)O
- Growth Rate [1, 4]: 0.99
- Growth Rate [1, 8]: 0.79
- Growth Rate [1, 12]: 0.88
- Growth Rate [1, 13]: 0.78
- Growth Rate [2, 6]: -0.06
- Growth Rate [2, 9]: 0.45
- Growth Rate [3, 5]: -1
- Growth Rate [3, 6]: 0.67
- Growth Rate [3, 9]: 0.39
- Growth Rate [3, 10]: 0.86
- Growth Rate [3, 11]: 0.78
- Growth Rate [3, 13]: 0.97

SMILES: O=C(O)c1nc2ccccc2c2[nH]c3c(I)cccc3c12
- Growth Rate [1, 4]: 0.01
- Growth Rate [1, 5]: 0.84
- Growth Rate [1, 12]: 0.75
- Growth Rate [1, 11]: 0.78
- Growth Rate [2, 4]: -0.96
- Growth Rate [2, 5]: 0.92
- Growth Rate [3, 5]: -1
- Growth Rate [3, 6]: 0.56
- Growth Rate [3, 12]: 0.85
- Growth Rate [3, 10]: 0.93
- Growth Rate [3, 11]: 0.85
- Growth Rate [3, 13]: 0.91

SMILES: COc1cc(OC)cc(C(=O)NNC(=O)Nc2cccc3ccccc23)c1
- Growth Rate [1, 4]: 0.01
- Growth Rate [1, 5]: 0.45
- Growth Rate [1, 10]: 0.97
- Growth Rate [2, 6]: 0.64
- Growth Rate [2, 9]: 0.93
- Growth Rate [3, 4]: 0.7
- Growth Rate [3, 5]: -1
- Growth Rate [3, 6]: 0.36
- Growth Rate [3, 9]: 1
- Growth Rate [3, 12]: 0.87
- Growth Rate [3, 10]: 0.78
- Growth Rate [3, 11]: 0.77
- Growth Rate [3, 7]: 0.87
- Growth Rate [3, 13]: 0.86

SMILES: CCc1cc2c(cc1-c1cccc(S(=O)(=O)F)c1)C(C)(C)c1[nH]c3cc(C#N)ccc3c1C2=O
- Growth Rate [1, 4]: 0.26
- Growth Rate [1, 5]: 0.5
- Growth Rate [1, 6]: 0.46
- Growth Rate [1, 8]: 0.37
- Growth Rate [1, 9]: 0.99
- Growth Rate [1, 12]: 0.6
- Growth Rate [1, 10]: 0.78
- Growth Rate [1, 11]: 0.62
- Growth Rate [1, 7]: 1
- Growth Rate [2, 5]: 0.22
- Growth Rate [2, 6]: 0.03
- Growth Rate [2, 8]: 0.66
- Growth Rate [2, 9]: -0.15
- Growth Rate [2, 12]: 0.17
- Growth Rate [2, 10]: -0.21
- Growth Rate [2, 11]: 0.47
- Growth Rate [2, 7]: -0.18
- Growth Rate [2, 13]: 0.58
- Growth Rate [3, 4]: 0.95
- Growth Rate [3, 5]: -1
- Growth Rate [3, 6]: -0.03
- Growth Rate [3, 8]: 0.92
- Growth Rate [3, 9]: 0.61
- Growth Rate [3, 12]: 0.81
- Growth Rate [3, 10]: 0.58
- Growth Rate [3, 11]: 0.78
- Growth Rate [3, 13]: 0.78

SMILES: CC(C)Oc1ccc(F)c(-c2cnc(N)c(C(=O)Nc3cnccc3N3CCC[C@@H](C(=O)O)C3)n2)c1
- Growth Rate [1, 4]: 0.29
- Growth Rate [1, 5]: 0.07
- Growth Rate [1, 6]: 0.66
- Growth Rate [1, 8]: 0.25
- Growth Rate [1, 9]: 0.11
- Growth Rate [1, 12]: 0.14
- Growth Rate [1, 10]: 0.21
- Growth Rate [1, 11]: 0.13
- Growth Rate [1, 7]: 0.25
- Growth Rate [1, 13]: 0.33
- Growth Rate [2, 4]: -0.81
- Growth Rate [2, 5]: 0.06
- Growth Rate [3, 5]: -1
- Growth Rate [3, 11]: 0.84
- Growth Rate [3, 13]: 0.73

SMILES: O=C(O)C(F)(F)F.O=C1NC(=O)/C(=C/c2c[nH]c(=O)c(-c3ccc(N4CCNCC4)nc3)c2)S1
- Growth Rate [1, 4]: 0.87
- Growth Rate [1, 5]: 0.65
- Growth Rate [1, 8]: 0.18
- Growth Rate [1, 12]: 0.7
- Growth Rate [1, 11]: 0.92
- Growth Rate [2, 4]: 0.44
- Growth Rate [2, 8]: 0.04
- Growth Rate [2, 12]: 0.66
- Growth Rate [2, 11]: 0.64
- Growth Rate [2, 13]: 0.71
- Growth Rate [3, 4]: -0.39
- Growth Rate [3, 5]: -1
- Growth Rate [3, 6]: 0.45
- Growth Rate [3, 9]: 0.51
- Growth Rate [3, 10]: 1
- Growth Rate [3, 13]: 0.94

SMILES: O=C(Nc1cc(C(F)(F)F)ccc1N1CCN(Cc2ccccn2)CC1)c1ccc(-c2ccncc2)o1
- Growth Rate [1, 4]: 0.95
- Growth Rate [1, 5]: 0.73
- Growth Rate [1, 6]: 0.44
- Growth Rate [1, 8]: 0.41
- Growth Rate [1, 9]: -0.16
- Growth Rate [1, 12]: -0.05
- Growth Rate [1, 10]: -0.1
- Growth Rate [1, 11]: -0.19
- Growth Rate [1, 7]: -0.03
- Growth Rate [1, 13]: -0.11
- Growth Rate [2, 4]: 0.86
- Growth Rate [2, 6]: 0.13
- Growth Rate [2, 8]: -0.21
- Growth Rate [2, 9]: -0.19
- Growth Rate [2, 12]: 0.06
- Growth Rate [2, 10]: 0.1
- Growth Rate [2, 11]: 0.16
- Growth Rate [2, 7]: 0.21
- Growth Rate [2, 13]: 0.56
- Growth Rate [3, 4]: -0.79
- Growth Rate [3, 5]: -1
- Growth Rate [3, 12]: 0.93
- Growth Rate [3, 11]: 0.83
- Growth Rate [3, 13]: 0.76

SMILES: COc1ccc2nc3ccc(OC)cc3c(SCCCN)c2c1.Cl
- Growth Rate [1, 4]: -0.05
- Growth Rate [1, 5]: -0.25
- Growth Rate [1, 6]: -0.57
- Growth Rate [1, 8]: 0.26
- Growth Rate [1, 9]: -0.16
- Growth Rate [1, 12]: 0.33
- Growth Rate [1, 10]: 0.19
- Growth Rate [1, 11]: 0.22
- Growth Rate [1, 7]: 0.28
- Growth Rate [1, 13]: 0.19
- Growth Rate [2, 4]: 0.15
- Growth Rate [2, 5]: 0.39
- Growth Rate [2, 6]: 0.94
- Growth Rate [3, 4]: -0.75
- Growth Rate [3, 5]: -0.3
- Growth Rate [3, 9]: 0.7
- Growth Rate [3, 12]: 0.2
- Growth Rate [3, 10]: 0.19
- Growth Rate [3, 11]: 0.16
- Growth Rate [3, 7]: 0.14
- Growth Rate [3, 13]: 0.21

SMILES: O=C1NC(NC23CC4CC(CC(C4)C2)C3)=N/C1=C\c1ccc2ncsc2c1
- Growth Rate [1, 4]: -0.13
- Growth Rate [1, 5]: -0.17
- Growth Rate [1, 9]: 0.28
- Growth Rate [1, 12]: 0.24
- Growth Rate [1, 10]: 0.03
- Growth Rate [1, 11]: 0.09
- Growth Rate [1, 7]: 0.01
- Growth Rate [1, 13]: 0.06
- Growth Rate [2, 4]: -0.85
- Growth Rate [2, 5]: 0.36
- Growth Rate [3, 4]: -0.86
- Growth Rate [3, 5]: -1
- Growth Rate [3, 10]: 0.56
- Growth Rate [3, 11]: 0.88
- Growth Rate [3, 7]: 0.62
- Growth Rate [3, 13]: 0.7

SMILES: CCNC(=O)[C@H]1O[C@@H](n2cnc3c(N)nc(NCCc4ccc(CCC(=O)O)cc4)nc32)[C@H](O)[C@@H]1O.Cl
- Growth Rate [1, 4]: 0.05
- Growth Rate [1, 5]: 0.1
- Growth Rate [1, 6]: 0.95
- Growth Rate [2, 5]: 0.98
- Growth Rate [2, 6]: 0.96
- Growth Rate [2, 8]: 0.47
- Growth Rate [2, 12]: 0.63
- Growth Rate [3, 4]: -0.07
- Growth Rate [3, 6]: 0
- Growth Rate [3, 8]: 0.99
- Growth Rate [3, 9]: 0.64
- Growth Rate [3, 10]: 0.96
- Growth Rate [3, 13]: 0.97
